Laboratory results reported in the supplement of paper PMC4862054.
Values joined by “and” are separate entries in the source; they are usually repeats but may differ in a detail not shown here. Identical values can stand only once.

How the values were obtained:
Hs578T [1] = settings: 72 h
Method: (§1)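 Drug sensitivity and resistance testing (DSRT) of breast cancer cell lines in 384-well plates, 5 concentrations in 10-fold dilutions over a compound-specific 10,000-fold range. After 72 h, cytotoxicity was read by CellTox Green fluorescence and viability by CellTiter-Glo luminescence (multiplexed), normalised to DMSO and benzethonium chloride controls. EC50 is the inflection point of the fitted dose-response curve (bottom asymptote free, so it can be relative for partial curves) and is censored at the highest tested concentration. Rows with DSS 0 (no meaningful response) were excluded.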

HCC1937 [2] = settings: 72 h
In short: (§2)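 For viability, cells received 2.5 µl CellTiter-Blue for 2 h at 37 °C and fluorescence was read at 560/590 nm. Before this, breast cancer cell lines in 20 µl suspension had been incubated for 72 h on 384-well plates pre-loaded with compound dissolved in 5 µl medium. EC50 was obtained from a percent-inhibition dose-response fit censored at the highest concentration, after normalisation of each plate to vehicle and a positive kill control; rows with a zero drug sensitivity score were discarded.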

MDA-MB-468 = settings: 72 h
In short: as §2

BT-474 [3] = test: normalised viability (% of control), CellTiter-Blue; higher = more viable cells (100 = DMSO, 0 = benzethonium chloride kill control); settings: 1 nM; incubation time: 72 h
Method: (§3)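 DSRT, CellTiter-Blue viability, 72 h incubation. Signal is normalised to DMSO and benzethonium chloride controls. Value is the normalised response at dose 1.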

MDA-MB-231 [4] = test: as above; settings: incubation time: 72 h
Method: as §3

HDQ-P1 [5] = test: as above; settings: incubation time: 72 h
Method: as §3

SK-BR-3 [6] = test: as above; settings: incubation time: 72 h
Method: as §3

DU-4475 [7] = test: as above; settings: incubation time: 72 h
Method: as §3

MDA-MB-436 [8] = settings: 72 h
Method: as §1

CAL-85-1 [9] = settings: 72 h
Method: as §1

HCC1937 [10] = settings: 72 h; remark: listed apart in the source
Method: as §1

CAL-148 [11] = settings: 72 h
Method: as §1

MFM-223 [12] = settings: 72 h
Method: as §1

HCC1143 [13] = settings: 72 h
In short: (§4)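 For viability and cell death testing, 384-well plates carried compound at 5 concentrations in 10-fold steps over a compound-specific 10,000-fold range, and breast cancer cell lines were seeded in 20 µl suspension. After 72 h incubation, cell death was read by CellTox Green fluorescence (485/520 nm) before viability was read by CellTiter-Glo luminescence. EC50 was fitted from the dose-response curves and censored at the top concentration. Normalisation on each plate was to 0.1 % DMSO and a positive kill control.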

HDQ-P1 [14] = settings: 72 h
In short: as §4

CAL-148 [15] = settings: 72 h; remark: listed apart in the source
In short: as §4

MFM-223 [16] = settings: 72 h; remark: listed apart in the source
In short: as §4

DU-4475 [17] = settings: 72 h
In short: as §4

BT-474 [18] = settings: 72 h
In short: as §2

Hs578T [19] = settings: 72 h; remark: listed apart in the source
In short: as §2

BT-549 [20] = settings: 72 h
In short: as §2

HCC1143 [21] = settings: 72 h; remark: listed apart in the source
In short: as §2

CAL-120 = settings: 72 h
In short: as §2

MDA-MB-231 [22] = settings: 72 h
In short: as §2

HCC1599 [23] = settings: 72 h
In short: as §2

MFM-223 [24] = settings: 72 h; remark: listed apart in the source
In short: as §2

SK-BR-3 [25] = settings: 72 h
In short: as §2

CAL-85-1 [26] = settings: 72 h; remark: listed apart in the source
In short: as §2

HDQ-P1 [27] = settings: 72 h; remark: listed apart in the source
In short: as §2

CAL-51 [28] = settings: 72 h
In short: as §2

CAL-148 [29] = settings: 72 h; remark: listed apart in the source
In short: as §2

DU-4475 [30] = settings: 72 h; remark: listed apart in the source
In short: as §2

BT-549 [31] = settings: 72 h; remark: listed apart in the source
Method: as §1

MDA-MB-453 = settings: 72 h
Method: as §1

MDA-MB-436 [32] = settings: 72 h; remark: listed apart in the source
In short: as §2

CAL-51 [33] = settings: 72 h; remark: listed apart in the source
Method: as §1

HCC1599 [34] = settings: 72 h; remark: listed apart in the source
In short: as §4

Structure (SMILES)	EC50, CellTox Green (Hs578T [1]) [nM]	EC50, CellTiter-Blue viability (HCC1937 [2]) [nM]	EC50, CellTiter-Blue viability (MDA-MB-468) [nM]	normalised viability (BT-474 [3]) [%]	normalised viability (MDA-MB-231 [4]; 1 nM)	normalised viability (HDQ-P1 [5]; 1 nM) [%]	normalised viability (SK-BR-3 [6]; 1 nM)	normalised viability (DU-4475 [7]; 1 nM)	EC50, CellTox Green (MDA-MB-436 [8]) [nM]	EC50, CellTox Green (CAL-148 [11]) [nM]	EC50, CellTox Green (MFM-223 [12]) [nM]	EC50, CellTiter-Glo (HCC1143 [13]) [nM]	EC50, CellTiter-Glo (HDQ-P1 [14]) [nM]	EC50, CellTiter-Glo (CAL-148 [15]) [nM]	EC50, CellTiter-Glo (MFM-223 [16]) [nM]	EC50, CellTiter-Glo (DU-4475 [17]) [nM]	EC50, CellTiter-Blue viability (BT-474 [18]) [nM]	EC50, CellTiter-Blue viability (Hs578T [19]) [nM]	EC50, CellTiter-Blue viability (BT-549 [20]) [nM]	EC50, CellTiter-Blue viability (HCC1143 [21]) [nM]	other results
Nc1ncnc2c1c(COc1cccc(Cl)c1)nn2C1CCOCC1	> 10000																				
O=C(O)CCCc1ccc(N(CCCl)CCCl)cc1 [Chlorambucil]		731	5340	89.7	106%	111	101%	102%	> 10000												
Cn1c(=O)n(-c2ccc(C(C)(C)C#N)cc2)c2c3cc(-c4cnc5ccccc5c4)ccc3ncc21 [Dactolisib]										100	579	17.9	12.8	18.7	14.8	42.8					EC50, CellTox Green (CAL-85-1 [9]): 197 nM; EC50, CellTox Green (HCC1937 [10]): 80.7 nM
CO[C@H]1C[C@@H]2CC[C@@H](C)[C@@](O)(O2)C(=O)C(=O)N2CCCC[C@H]2C(=O)O[C@H]([C@H](C)C[C@@H]2CC[C@@H](OCCO)[C@H](OC)C2)CC(=O)[C@H](C)/C=C(\C)[C@@H](O)[C@@H](OC)C(=O)[C@H](C)C[C@H](C)/C=C/C=C/C=C/1C [Everolimus]		2.95									8.31	0.39	5.68	0.38	0.29	1.24	0.289	0.13	0.381	0.14	EC50, CellTiter-Blue viability (CAL-120): 0.304 nM; EC50, CellTiter-Blue viability (MDA-MB-231 [22]): 26.9 nM; EC50, CellTiter-Blue viability (HCC1599 [23]): 11.8 nM; EC50, CellTiter-Blue viability (MFM-223 [24]): 0.27 nM; EC50, CellTiter-Blue viability (SK-BR-3 [25]): 0.945 nM; normalised viability (MDA-MB-231 [4]; 0.1 nM): 94.9% and 73.3%; normalised viability (HDQ-P1 [5]; 0.1 nM): 87.3% and 89.8%; normalised viability (SK-BR-3 [6]; 0.1 nM): 95.7% and 89.7%; normalised viability (DU-4475 [7]; 0.1 nM): 106% and 105%; EC50, CellTiter-Blue viability (CAL-85-1 [26]): 0.219 nM; EC50, CellTiter-Blue viability (HDQ-P1 [27]): 0.35 nM; EC50, CellTiter-Blue viability (CAL-51 [28]): 1.14 nM; EC50, CellTiter-Blue viability (CAL-148 [29]): 0.675 nM; EC50, CellTiter-Blue viability (DU-4475 [30]): 2.34 nM; EC50, CellTox Green (BT-549 [31]): > 100 nM
Cc1ccc(NC(=O)c2ccc(CN3CCN(C)CC3)cc2)cc1Nc1nccc(-c2cccnc2)n1 [Imatinib]	> 10000				90.8% and 95.5%		89.3% and 102%	99% and 111%													EC50, CellTox Green (MDA-MB-453): 2820 nM
CN(C)CCN1C(=O)c2cccc3cc(N)cc(c23)C1=O [Amonafide]		1110	6670	103	93.1%	105	101%	99.6%	44.4	6190		3330		4300	7400	3300	> 10000	9380	9680	3710	EC50, CellTiter-Blue viability (MDA-MB-436 [32]): 2760 nM; EC50, CellTiter-Blue viability (CAL-120): 3370 nM; EC50, CellTiter-Blue viability (MDA-MB-231 [22]): 2240 nM; EC50, CellTiter-Blue viability (HCC1599 [23]): 9620 nM; EC50, CellTiter-Blue viability (MFM-223 [24]): 7280 nM; EC50, CellTiter-Blue viability (SK-BR-3 [25]): 5740 nM; EC50, CellTiter-Blue viability (CAL-85-1 [26]): 4450 nM; EC50, CellTiter-Blue viability (HDQ-P1 [27]): 9740 nM; EC50, CellTiter-Blue viability (CAL-51 [28]): 3320 nM; EC50, CellTiter-Blue viability (CAL-148 [29]): 1830 nM; EC50, CellTiter-Blue viability (DU-4475 [30]): 3240 nM; EC50, CellTox Green (CAL-51 [33]): 6260 nM; EC50, CellTiter-Glo (HCC1599 [34]): > 10000 nM
